{"source": "ChEMBL document CHEMBL3507680", "about": "“University of Dundee, Gates Library screen for HepG2 cell viability”"}
{"experiment": "Human HepG2 cell viability assay in 384 well format", "type": "toxicity, cell-based", "design": "dose 125 nL, time 70.5 hour; cytotoxicity at 70.5 h: concentration not given beside the values", "settings": "HepG2 cells, read-out: Inhibition", "units": {"cytotoxicity at 70.5 h": "%"}}
{"smiles": "CN(Cc1ccc(C#N)cc1)C(=O)c1ccn(C)c(=O)c1", "cytotoxicity at 70.5 h": -9.77}
{"smiles": "CCOCCCC(=O)NC1CCN(C(C)c2ccccc2)CC1", "note": "(configuration not stated)", "cytotoxicity at 70.5 h": -5.8}
{"smiles": "O=C(NC1CC1)c1cccc(S(=O)(=O)NCCc2nc(C3CC3)no2)c1", "cytotoxicity at 70.5 h": -6.39}
{"smiles": "Cc1nc(C2(NCc3c(C)nn(C)c3N3CCOCC3)CCC2)no1", "cytotoxicity at 70.5 h": 10.7}
{"smiles": "Cc1nc(N2CCOCC2)nc2c1CN(CC(=O)N(C)C)CC2", "cytotoxicity at 70.5 h": -13.5}
{"smiles": "FC(F)(F)c1ccc(-c2noc3c2CN(CC2CCCO2)CC3)cc1", "note": "(configuration not stated)", "cytotoxicity at 70.5 h": -10.2}
{"smiles": "COC(=O)c1ccc(Cn2cnc(C#N)n2)cc1", "cytotoxicity at 70.5 h": -12}
{"smiles": "Cc1ccc(Cl)cc1NC(=O)C1CSc2ncc(C)c(=O)n2C1", "note": "(configuration not stated)", "cytotoxicity at 70.5 h": -13.9}
{"smiles": "CS(=O)(=O)N1CCC2(CC1)NCCn1c(-c3ccccc3)cnc12", "cytotoxicity at 70.5 h": -7.68}
{"smiles": "CC(=O)NCc1nnc2n1CCN(c1nc(C)nc3sccc13)CC2", "cytotoxicity at 70.5 h": -7.13}
{"smiles": "CC(=O)N1CC2(CCN(C(=O)C3CC3)CC2)c2cc(C)ccc21", "cytotoxicity at 70.5 h": 6.48}
{"smiles": "CC(=O)N1CCC(CCNC(C)Cc2ccc(F)cc2)CC1", "note": "(configuration not stated)", "cytotoxicity at 70.5 h": -13.1}
{"smiles": "CC[C@@]1(O)CCN(C(=O)c2ccc(OC(F)F)cc2)C[C@H]1O", "cytotoxicity at 70.5 h": -4.22}
{"smiles": "Cn1nc(Cn2ccnc2)c2c1CN(C(=O)c1ccc[nH]1)C2", "cytotoxicity at 70.5 h": -10.6}
{"smiles": "Nc1ncc(-c2ccc(Cl)cc2)c(C2CCCNC2)n1", "note": "(configuration not stated)", "cytotoxicity at 70.5 h": 37.3}
{"smiles": "O=S(=O)(NC1CCC12CCN(CC1CCOCC1)CC2)c1ccccc1", "note": "(configuration not stated)", "cytotoxicity at 70.5 h": -2.17}
{"smiles": "COCCC(=O)N(Cc1cccnc1)CC1CCN(C2CCCC2)CC1", "cytotoxicity at 70.5 h": 3.05}
{"smiles": "Cc1cc(N2CCC(O)(CN(C)C(=O)CCN)C2)c2cnccc2n1", "note": "(configuration not stated)", "cytotoxicity at 70.5 h": -4.6}
{"smiles": "O=C(CC1CC1)N1CCCn2nnc(CNc3ncccn3)c2C1", "cytotoxicity at 70.5 h": -1.8}
{"smiles": "CCCn1cc(C(=O)N2CCOC(c3nc(-c4cccs4)no3)C2)cn1", "note": "(configuration not stated)", "cytotoxicity at 70.5 h": -4.18}
{"smiles": "Cc1nc(CN2Cc3nccn3CC(CN3CCOCC3)C2)cs1", "note": "(configuration not stated)", "cytotoxicity at 70.5 h": -2.85}
{"smiles": "O=C(NCc1ccccn1)NC1CCOc2ccccc21", "note": "(configuration not stated)", "cytotoxicity at 70.5 h": 20.6}
{"smiles": "Cc1nonc1CC(=O)N1CCC2(CCCN(C3CCOCC3)C2=O)C1", "note": "(configuration not stated)", "cytotoxicity at 70.5 h": -5.27}
{"smiles": "CCC[C@]12CN3C[C@](C)(CN(C1)C3c1[nH]c(=O)[nH]c(=O)c1C)C2=O", "note": "(some centres not stated)", "cytotoxicity at 70.5 h": -9.33}
{"smiles": "CC(C)Oc1ccc(CNC(=O)C2CCS(=O)(=O)C2)cn1", "note": "(configuration not stated)", "cytotoxicity at 70.5 h": 26.3}
{"smiles": "O=C(NCCCn1cccn1)c1csc2c1CCCC2", "cytotoxicity at 70.5 h": -11.3}
{"smiles": "Cc1cnc(CN(Cc2ccc(Cl)s2)C2CCN(C)C2)o1", "note": "(configuration not stated)", "cytotoxicity at 70.5 h": -9.93}
{"smiles": "Cc1ccc2c(n1)N(C)CCN(Cc1cnn(C)c1)C2", "cytotoxicity at 70.5 h": -2.39}
{"smiles": "O=c1[nH]c(CCN2CCCCC2Cn2cccn2)nc2ccccc12", "note": "(configuration not stated)", "cytotoxicity at 70.5 h": -1.7}
{"smiles": "N#Cc1cc2c(=O)n(CC(O)Cc3ccccc3)ccc2[nH]c1=O", "note": "(configuration not stated)", "cytotoxicity at 70.5 h": -13.6}
{"smiles": "O=C1CN(C(=O)C2CCCCC2)CC(O)CN1Cc1ccco1", "note": "(configuration not stated)", "cytotoxicity at 70.5 h": -4.93}
{"smiles": "CS(=O)(=O)N1CCn2c(C(=O)N3CCOCC3)cnc2C1", "cytotoxicity at 70.5 h": -0.596}
{"smiles": "CSc1ccc(CN(C(=O)c2cc[nH]n2)C2CC2)cc1", "cytotoxicity at 70.5 h": -7.21}
{"smiles": "CS(=O)(=O)NCc1ncn2c1CN(C(=O)C1CCCCC1)CCC2", "cytotoxicity at 70.5 h": -4.09}
{"smiles": "COCC(=O)N1CCO[C@]2(CCC[C@H]2COC)C1", "cytotoxicity at 70.5 h": 9.79}
{"smiles": "Cc1c(C2NC3(CCCC3)C(=O)N2CC2CC2)cc(C#N)n1C", "note": "(configuration not stated)", "cytotoxicity at 70.5 h": -8.72}
{"smiles": "O=C(NC(C(=O)Nc1cc[nH]n1)c1ccccc1)C1CCC1", "note": "(configuration not stated)", "cytotoxicity at 70.5 h": -0.966}
{"smiles": "CCNc1cc2c(nn1)CCN(C(=O)c1cc3ccccc3[nH]c1=O)C2", "cytotoxicity at 70.5 h": -12.3}
{"smiles": "OC(COCc1ccccc1)CSc1nnc2ccccn12", "note": "(configuration not stated)", "cytotoxicity at 70.5 h": -5.06}
{"smiles": "CCCNC(=O)N1CCc2ccc(S(=O)(=O)N3CCOCC3)cc2C1", "cytotoxicity at 70.5 h": -16.2}
{"smiles": "Cc1n[nH]c(C)c1C1COCCN1C(=O)c1cc(Cl)c[nH]1", "note": "(configuration not stated)", "cytotoxicity at 70.5 h": -5.39}
{"smiles": "CCc1ccccc1Nc1noc2c1CN(C(=O)c1ccn(C)n1)CC2", "cytotoxicity at 70.5 h": 2.97}
{"smiles": "CC(=O)Nc1ncc(S(=O)(=O)N2CCOCC2)s1", "cytotoxicity at 70.5 h": -1.73}
{"smiles": "Cc1cccc(Oc2ccccc2CNC(=O)C2CCC(=O)NC2)c1", "note": "(configuration not stated)", "cytotoxicity at 70.5 h": -10.6}
{"smiles": "CCOC(=O)NCCC(=O)NCc1ccc(Oc2ccc(F)cc2)nc1", "cytotoxicity at 70.5 h": 1.62}
{"smiles": "O=C(c1cccnn1)N1C[C@@H]2CC[C@H](Oc3cccc(F)c3)[C@@H]2C1", "cytotoxicity at 70.5 h": 14.9}
{"smiles": "COCCC(Cc1cccc(Br)c1)C(=O)N(C)C", "note": "(configuration not stated)", "cytotoxicity at 70.5 h": -0.534}
{"smiles": "CC(=O)N1CC[C@@H]2CN(C(=O)c3ccco3)CCO[C@@H]2C1", "cytotoxicity at 70.5 h": -29.3}
{"smiles": "O=C(CSCCN1CCOCC1)N1CCc2ccccc2C1", "cytotoxicity at 70.5 h": 17.6}
{"smiles": "Cc1n[nH]c(C)c1CNc1ccc(-c2nc(C3CC3)no2)cn1", "cytotoxicity at 70.5 h": -0.0598}
{"smiles": "Cc1ccc(C(=O)N2C[C@H]3CCC[C@@]3(COCc3ccncc3)C2)cn1", "cytotoxicity at 70.5 h": -7.42}
{"smiles": "COc1cc(CNC(C)Cn2ccnc2)cc2c1OCCO2", "note": "(configuration not stated)", "cytotoxicity at 70.5 h": 21.5}
{"smiles": "Clc1cc(NCc2ncc[nH]2)nc2[nH]ccc12", "cytotoxicity at 70.5 h": -6.45}
{"smiles": "COc1ccccc1Oc1ncccc1CNC(=O)C1(C)CCCNC1", "note": "(configuration not stated)", "cytotoxicity at 70.5 h": -1.4}
{"smiles": "CC(=O)Cc1c(C)nn(-c2cncc(C(N)=O)c2)c1C", "cytotoxicity at 70.5 h": -9.56}
{"smiles": "COCC1CC2(CCN(Cc3ccco3)CC2)CN1C(C)C", "note": "(configuration not stated)", "cytotoxicity at 70.5 h": 6.8}
{"smiles": "O=S(=O)(N1CCN(CC2CC2)CC1)N1CCCC1c1ccco1", "note": "(configuration not stated)", "cytotoxicity at 70.5 h": -5.9}
{"smiles": "Cc1nn(C)c2ncc(S(=O)(=O)N3CCCC(C(N)=O)C3)cc12", "note": "(configuration not stated)", "cytotoxicity at 70.5 h": -6.46}
{"smiles": "CC(C)(C)NC(=O)CNC(=O)CCc1ccccc1Br", "cytotoxicity at 70.5 h": -8.13}
{"smiles": "COC(=O)CC(c1ccc(OC)c(O)c1)c1oc(C)cc(=O)c1O", "note": "(configuration not stated)", "cytotoxicity at 70.5 h": -2.8}
{"smiles": "Cc1ccc(CC(=O)N2CCc3nnc(N(C)C)cc3C2)s1", "cytotoxicity at 70.5 h": -4.06}
{"smiles": "Cc1ccc(CN2CCCC3(COCCN(Cc4c[nH]nn4)C3)C2)o1", "note": "(configuration not stated)", "cytotoxicity at 70.5 h": 0.0506}
{"smiles": "CC1CN(C)CCN1C(=O)c1cnn(-c2ccc(Cl)cc2)c1", "note": "(configuration not stated)", "cytotoxicity at 70.5 h": 19.4}
{"smiles": "CO[C@H]1CN(Cc2nc3ccccc3n2C)C[C@@]12CCCO2", "cytotoxicity at 70.5 h": 7.3}
{"smiles": "Cc1cc(C)cc(OCC(O)CN2CCN(c3nccs3)CC2)c1", "note": "(configuration not stated)", "cytotoxicity at 70.5 h": 8.55}
{"smiles": "CCC1CN(C(=O)COc2ccc(NC(C)=O)cc2)CCO1", "note": "(configuration not stated)", "cytotoxicity at 70.5 h": 13.7}
{"smiles": "COCC[C@]1(O)CCN(Cc2nnc(C)s2)C[C@H]1C", "cytotoxicity at 70.5 h": -9.14}
{"smiles": "COc1cccc(CNCc2cccnc2)c1", "cytotoxicity at 70.5 h": 9.83}
{"smiles": "Cc1ccc(C(C)NC(=O)N2CCNC(=O)CC2)cc1F", "note": "(configuration not stated)", "cytotoxicity at 70.5 h": -17.7}
{"smiles": "O=C(O)CNc1cc(-c2nccnc2N2CCCC2)c2cc[nH]c2n1", "cytotoxicity at 70.5 h": 0.303}
{"smiles": "Cc1nn(C)c(C)c1C1CCCN1Cc1nc2ccccc2o1", "note": "(configuration not stated)", "cytotoxicity at 70.5 h": -4.38}
{"smiles": "CCn1ncc2c1CCCC2NCc1ccc2c(c1)OCCO2", "note": "(configuration not stated)", "cytotoxicity at 70.5 h": 4.09}
{"smiles": "CCOc1ncnc2c1CCN(C(=O)c1ccncc1F)CC2", "cytotoxicity at 70.5 h": -3.16}
{"smiles": "Cc1cc(C(=O)Nc2ccc3c(ccn3CCN3CCOCC3)c2)on1", "cytotoxicity at 70.5 h": -5.31}
{"smiles": "CCn1cnnc1C1CCN(C(=O)c2cc3c(s2)CCC3)CC1", "cytotoxicity at 70.5 h": -12.3}
{"smiles": "COCC1CC2(CCN(Cc3nc(C)cs3)CC2)CO1", "note": "(configuration not stated)", "cytotoxicity at 70.5 h": -8.71}
{"smiles": "CN(C)C(=O)CN1C[C@@H]2CC[C@H](C1)N(Cc1cccc(Cl)c1Cl)C2", "cytotoxicity at 70.5 h": 7.51}
{"smiles": "Cc1ccc(-n2nnc(C(=O)Nc3cc(C)nn3C)c2C2CC2)cc1", "cytotoxicity at 70.5 h": 0.219}
{"smiles": "COc1ccc(CN(Cc2ccsc2)CC2CCCO2)cn1", "note": "(configuration not stated)", "cytotoxicity at 70.5 h": -2.5}
{"smiles": "Cc1ccc(N2CCCC(NCc3ccccn3)C2)nn1", "note": "(configuration not stated)", "cytotoxicity at 70.5 h": 25.6}
{"smiles": "Cc1cccc(C(C)(C)NC(=O)CS(=O)(=O)CC(C)C)c1", "cytotoxicity at 70.5 h": -4.98}
{"smiles": "Cc1nn(CC(=O)N2CCN(c3ccc(F)cc3)CC2)c(C)c1Cl", "cytotoxicity at 70.5 h": 26.3}
